“And” between values parts separate entries of the source, which are not always exact repeats. Equal entries are not always repeated.
System: GTC seizures in human patients
Assay: THC treatment of several human patients with GTC seizures (responder rate, one-year remission rate, adverse effects)
Assay type: in vivo
Settings: for Increase in 1 YR Seizure Remission Rate over expected: expected 5%; for THC-related adverse event: one adult patient
Text: Several human patients commenced treatment with THC after a first visit. More details about the treatment are provided below. The group included 82 total adult patients and 12 total pediatric patients. Of those 94 patients, 34 adult patients and 10 pediatric patients had experienced at least one GTC seizure in the year preceding the first visit. At the time of first visit, 14 of the 34 adult patients and 8 of the 10 pediatric patients had never taken THC. At the time of first visit, five of the 34 adult patients and two of the 10 pediatric patients were consistently/regularly taking THC. At the time of first visit, 15 of the 34 adult patients and none of the 10 pediatric patients were inconsistently/irregularly taking THC or had taken THC at some point in the past and were no longer taking THC.
At the time of first visit, 16 of the 34 adult patients had treatment resistant epilepsy, which means the patients had persistent GTC seizures despite taking two different anti-seizure medications at, or prior to, the first visit. At the time of first visit, all 10 of the pediatric patients had treatment resistant epilepsy.
The first visit means the date when the patient first saw the doctor for evaluation for THC treatment for GTC seizures. Responder rates means the percentage of patients that had at least a 50% reduction in GTC seizure frequency over a one-year treatment period with THC. One-year remission rate means the percentage of patients that experienced no GTC seizures in a one-year period after commencing THC treatment.
All of the 34 adult patients and 10 pediatric patients were taking other anti-seizure medications or had other anti-seizure treatment at the time of the first visit. […] Those anti-seizure medications and other anti-seizure treatments included: lamotrigine, topiramate, topiramate XR, vagus nerve stimulation, phenytoin, valproic acid, zonisamide, benzodiazepine, surgery, levetiracetam, carbamazepine, oxcarbazepine, lacosamide, perampanel, clonazepam, phenobarbial, pregabalin, gabapentin, rufinamide, CBD (e.g., Epidiolex), clobazam, and felbamate. Also, all patients who were using THC oral dosages were using products that included no CBD or products that included CBD in doses well below the therapeutic dose for Epidiolex.
THC Treatment for the 82 adult patients varied. Many of the patients smoked marijuana, so the dosage and/or timing of the dosage was unknown. Because CBD is delivered at sub-therapeutic levels when marijuana is smoked, it is acceptable to attribute any therapeutic effect to THC. The label for the CBD drug Epidiolex includes dosages starting at 5 mg/kg daily for all indications, and increasing to maintenance doses of 10 mg/kg or 20 mg/kg for Lennox-Gestault Syndrome and Dravet Syndrome, and increasing to maintenance doses of 25 mg/kg per day for Tuberous Sclerosis Complex. When 1 gram of cannabis is smoked, it delivers CBD to the lungs in doses well below the therapeutic dose levels prescribed for Epidiolex. Some other patients took unknown dosages of THC orally.

[1] = 14 adult patients who had never taken THC prior to first visit

## CCCCCc1cc(O)c2c(c1)OC(C)(C)[C@@H]1CCC(C)=C[C@@H]21 [THC, Delta-9-tetrahydrocannabinol]
1.8 mg THC transdermal patch daily+2.5 mg oral THC at bedtime, 5 mg CBD BID, 63.3 kg
  GTC seizure outcome, individual pediatric patient: 50% reduction in GTC seizure rates in a one-year period following THC treatment
2-3 mg THC+30 mg CBD orally, BID, 17.3 kg
  GTC seizure outcome, individual pediatric patient: no GTC seizures in a one-year period following THC treatment
5-10 mg THC+10-20 mg CBD orally, daily at bedtime, 34.1 kg
  GTC seizure outcome, individual pediatric patient: no GTC seizures in a one-year period following THC treatment
12 children
  adverse effects: none experienced adverse effects
[1]
  1 YR Seizure Remission Rate: 36%
  Responder Rate (at least 50% reduction in GTC seizure frequency over one year): 71%
82 adult patients
  Adverse Events: 2% (2/82)
82 adults treated with THC (sleepiness; reduced mental clarity)
  THC-related adverse effects: only two patients experienced THC-related adverse effects
Adult, calculated using the 29% (2/7) remission rate
  Increase in 1 YR Seizure Remission Rate over expected: ~**5.8X
GTCs and cerebral palsy, CBD 20 mg with 6% THC (1.2 mg) per day orally
  GTC seizure outcome, individual pediatric patient: resolution of all GTC seizure activity
Pediatric patients (0/13)
  Adverse Events: 0% (0/13)
Pediatric, calculated using the 37.5% (3/8) remission rate
  Increase in 1 YR Seizure Remission Rate over expected: ~***7.5X
THC (only), 10 mg/mL, 1-3 mg THC as rescue
  effect as rescue treatment, individual pediatric patient: complete resolution of seizures
Of 34 adult patients
  patients with 50% reduction in GTC seizure rates and no GTC seizures in a one-year period following THC treatment: 15 patients
  patients with 50% reduction in GTC seizure rates but not seizure free for a one-year period following THC treatment: 9 patients
  patients without 50% reduction in GTC seizure rates and not seizure free for a one-year period following THC treatment: 10 patients
2-3 mg THC and 38 mg CBD orally TDD
  THC-related adverse event: sleepiness
Unknown amounts of THC orally
  THC-related adverse event: mental unclarity
Same patient, 60-70 mg THC orally TDD in 2 divided doses
  GTC seizure outcome, individual pediatric patient: continued seizure remission
Two patients, 4-12 mg THC TDD
  GTC seizure outcome, individual pediatric patients: no GTC seizures in a one-year period following THC treatment and 50% reduction in GTC seizure rate in a one-year period following THC treatment

Source: patent US12036228B2, “Treatment of seizure disorders” (Shackelford Pharma Inc., priority 2022, dated 2024)
